Laboratory results: patent publication US20230233425A1, “USE OF VOLATILE COMPOSITIONS TO LIMIT OR ELIMINATE THE PERCEPTION OF MALODOR” (Firmenich SA, priority 2017, published 2023)
Values joined by “and” are separate entries in the source; they are usually repeats but may differ in a detail not shown here. Equal entries are not always repeated. Where two headings read alike, the source gives them in different places. Marks after values point to notes of the source that are not given here.

Assays:
[1] = tested on: OR11A1, or the OR2M3 olfactory receptor; test: Geonol olfactory receptor antagonist cell-based screening, inhibitory dose-response vs geonol EC80; set-up: species or system human; conditions: geonol at EC80; for IC50: read-out: IC50
[2] = tested on: geonol malodor (earthy/moss odor) perception; test: Sensory evaluation of geonol earthy/moss odor in iso-intense binary mixtures (glass jars); type: in vivo, human; conditions: iso-intense binary mixture
From the text: Sensory Evaluation: Five 16 oz glass jars containing either REF (geonol only), geonol only control, antagonist only, mixture of geonol and isointense antagonist, or mixture of geonol and low intensity antagonist were presented to the panelists (last four samples were randomized across panelists). The panelists were asked to familiarize themselves with the earthy/moss odor quality from the REF jar first, then rate the pleasantness, earthy/moss odor intensity and overall odor intensity of the next four samples on a 0-10 linear scale. The inter-stimulus interval between the samples was two minutes to avoid adaptation.

[3] = tested on: geonol earthy/moss odor perception; test: Human sensory performance of test compounds with and without geonol; type: in vivo; conditions: for % Earthy/Moss Odor: Test Compound Only
Outline: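 Panelists first learned the earthy/moss quality from a geonol-only reference, then rated pleasantness, earthy/moss intensity and overall intensity of geonol alone, antagonist alone, and geonol mixed with isointense or low-intensity antagonist on a 0-10 linear scale. Samples were presented in glass jars in randomized order with two-minute intervals.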

[4] = biological target: Olfr738 (Mus musculus, UniProt L7N1X7); test: Indole antagonist dose-response, cAMP HTRF in HEK293T, vs indole EC80; type: cell-based; conditions: vs indole EC80; for IC50: read-out: Olfr738 IC50
Sequence of Olfr738 (L7N1X7 entry or part of it): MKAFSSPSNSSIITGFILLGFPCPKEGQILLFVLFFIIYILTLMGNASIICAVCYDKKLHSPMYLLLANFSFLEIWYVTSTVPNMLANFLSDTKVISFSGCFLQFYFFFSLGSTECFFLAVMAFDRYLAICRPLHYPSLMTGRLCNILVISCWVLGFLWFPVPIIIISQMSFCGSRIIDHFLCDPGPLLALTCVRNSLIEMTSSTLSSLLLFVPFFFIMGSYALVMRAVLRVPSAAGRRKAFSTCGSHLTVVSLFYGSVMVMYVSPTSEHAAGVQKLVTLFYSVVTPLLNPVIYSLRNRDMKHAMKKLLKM

[5] = biological target: Olfr740 (Mus musculus, UniProt E9PV79); test: as above; type: cell-based; conditions: vs indole EC80; for IC50: read-out: Olfr740 IC50; for Emax: HEK-293T, read-out: Olfr740 % Inhibition
Sequence of Olfr740 (E9PV79 entry or part of it): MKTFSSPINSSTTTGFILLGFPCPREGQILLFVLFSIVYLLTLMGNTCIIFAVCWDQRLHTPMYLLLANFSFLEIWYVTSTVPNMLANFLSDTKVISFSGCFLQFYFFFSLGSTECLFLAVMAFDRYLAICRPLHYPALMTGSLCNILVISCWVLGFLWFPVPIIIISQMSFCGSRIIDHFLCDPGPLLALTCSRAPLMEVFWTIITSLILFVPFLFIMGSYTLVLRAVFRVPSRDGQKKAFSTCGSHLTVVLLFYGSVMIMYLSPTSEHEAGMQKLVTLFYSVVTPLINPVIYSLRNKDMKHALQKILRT

[6] = biological target: Olfr741 (Mus musculus, UniProt L7N1Y5); test: as above; type: cell-based
Sequence of Olfr741 (L7N1Y5 entry or part of it): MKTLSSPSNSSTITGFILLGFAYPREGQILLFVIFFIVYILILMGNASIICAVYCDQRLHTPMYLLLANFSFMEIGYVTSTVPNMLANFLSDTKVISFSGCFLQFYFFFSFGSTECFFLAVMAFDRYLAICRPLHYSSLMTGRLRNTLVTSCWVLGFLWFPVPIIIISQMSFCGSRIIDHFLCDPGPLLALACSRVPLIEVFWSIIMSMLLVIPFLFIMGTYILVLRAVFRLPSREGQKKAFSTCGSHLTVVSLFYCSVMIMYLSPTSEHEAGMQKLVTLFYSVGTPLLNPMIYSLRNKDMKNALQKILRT

[7] = biological target: Olfr742 (Mus musculus, UniProt A2RTP5); test: as above; type: cell-based; conditions: vs indole EC80; for IC50: read-out: Olfr742 IC50; for Emax: HEK-293T, read-out: Olfr742 % Inhibition
Sequence of Olfr742 (A2RTP5 entry or part of it): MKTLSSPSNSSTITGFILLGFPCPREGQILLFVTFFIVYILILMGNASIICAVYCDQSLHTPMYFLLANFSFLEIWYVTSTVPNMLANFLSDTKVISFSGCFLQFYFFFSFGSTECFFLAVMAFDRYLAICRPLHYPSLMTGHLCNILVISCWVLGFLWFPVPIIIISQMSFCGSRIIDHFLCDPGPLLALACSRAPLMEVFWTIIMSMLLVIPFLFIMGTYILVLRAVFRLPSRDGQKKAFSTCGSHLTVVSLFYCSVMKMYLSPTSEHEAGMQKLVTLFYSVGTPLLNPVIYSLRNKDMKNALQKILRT

[8] = biological target: Olfr748 (Mus musculus, UniProt E9Q9Z0); test: as above; type: cell-based; conditions: Table 23
Sequence of Olfr748 (E9Q9Z0 entry or part of it): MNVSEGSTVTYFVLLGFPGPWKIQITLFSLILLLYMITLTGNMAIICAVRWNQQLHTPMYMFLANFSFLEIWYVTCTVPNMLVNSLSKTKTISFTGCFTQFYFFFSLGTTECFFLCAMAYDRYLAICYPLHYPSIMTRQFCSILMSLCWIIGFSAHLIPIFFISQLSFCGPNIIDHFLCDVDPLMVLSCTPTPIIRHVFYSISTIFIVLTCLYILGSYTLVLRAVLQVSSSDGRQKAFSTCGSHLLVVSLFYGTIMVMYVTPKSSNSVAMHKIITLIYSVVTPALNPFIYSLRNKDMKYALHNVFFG

[9] = biological target: Olfr743 (Mus musculus, UniProt L7N1Y2); test: as above; type: cell-based; conditions: Table 23
Sequence of Olfr743 (L7N1Y2 entry or part of it): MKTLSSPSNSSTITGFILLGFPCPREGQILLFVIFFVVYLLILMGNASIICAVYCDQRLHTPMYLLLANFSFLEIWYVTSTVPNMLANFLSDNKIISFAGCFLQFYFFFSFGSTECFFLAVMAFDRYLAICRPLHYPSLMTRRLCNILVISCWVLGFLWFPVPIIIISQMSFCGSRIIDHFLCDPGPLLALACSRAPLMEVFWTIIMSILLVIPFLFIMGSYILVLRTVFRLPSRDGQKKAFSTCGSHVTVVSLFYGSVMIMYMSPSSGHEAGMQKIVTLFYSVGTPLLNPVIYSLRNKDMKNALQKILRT
Experimental: (§1) Functional dose-response experiments were performed to identify compounds capable of antagonizing indole-sensitive receptors previously identified (U.S. Pat. No. 9,914,760 B2). Using a cell-based assay, mouse receptor Olfr738, Olfr739, Olfr740, Olfr741, 0fr742, Olfr743, Olfr744, Olfr746, Olfr748 and Olfr749 were tested in an HEK293T cell line wherein the endogenous RTP1 gene has been activated and the odorant receptor chaperone was expressed (described in WO2016201153A1). The receptor genes were tagged with a Flag-Rho tag combination. Receptor genes were co-transfected with the canonical olfactory human G-protein alpha subunit Golf gene. Co-expression of the human Golf activates the Gs transduction pathway that leads to an internal cAMP increase upon binding to the appropriate ligand (indole here). Odorant-induced activity was detected by measuring the cAMP increase in the cytosol using an HTRF based kit (CisBio, cAMP dynamic 2 kit, cat. 62AM4PEJ). The receptors were exposed to binary mixtures of increasing concentrations of the test compounds in the presence of a potent activation concentration of indole (EC80) for each receptor. […] All the compounds listed decreased the indole induced activity of at least one receptor.

[10] = biological target: T1, Olfr746 (Mus musculus, UniProt E9Q840); test: as above; type: cell-based; conditions: Table 23
T1 construct: Flag; Rho tag; expressed in transfected cells
T1 sequence (E9Q840 1-314): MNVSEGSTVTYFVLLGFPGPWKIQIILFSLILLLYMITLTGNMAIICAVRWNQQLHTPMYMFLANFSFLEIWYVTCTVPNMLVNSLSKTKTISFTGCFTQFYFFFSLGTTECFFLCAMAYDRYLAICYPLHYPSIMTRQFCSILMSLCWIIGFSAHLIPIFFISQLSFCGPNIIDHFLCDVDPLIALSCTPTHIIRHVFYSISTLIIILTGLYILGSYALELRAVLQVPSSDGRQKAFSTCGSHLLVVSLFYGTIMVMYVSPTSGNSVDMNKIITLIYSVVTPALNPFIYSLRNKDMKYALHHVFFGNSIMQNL
Experimental: as §1

[11] = biological target: T2, Olfr749 (Mus musculus, UniProt E9Q438); test: as above; type: cell-based; conditions: Table 23
T2 construct: Flag; Rho tag; expressed in transfected cells
T2 sequence (E9Q438 1-313): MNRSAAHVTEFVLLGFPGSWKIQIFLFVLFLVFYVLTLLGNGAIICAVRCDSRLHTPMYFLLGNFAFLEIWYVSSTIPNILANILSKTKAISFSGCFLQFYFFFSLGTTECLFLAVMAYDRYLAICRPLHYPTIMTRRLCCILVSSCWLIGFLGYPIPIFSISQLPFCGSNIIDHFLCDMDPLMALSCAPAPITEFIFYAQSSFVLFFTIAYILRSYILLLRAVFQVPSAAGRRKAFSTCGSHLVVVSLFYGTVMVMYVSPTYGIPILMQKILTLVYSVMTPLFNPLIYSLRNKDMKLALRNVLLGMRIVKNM
Experimental: as §1

[12] = biological target: Olfr739 (Mus musculus, UniProt E9Q1P0); test: as above; type: cell-based; conditions: for IC50: Table 22, first listing (r7-r45)
Sequence of Olfr739 (E9Q1P0 entry or part of it): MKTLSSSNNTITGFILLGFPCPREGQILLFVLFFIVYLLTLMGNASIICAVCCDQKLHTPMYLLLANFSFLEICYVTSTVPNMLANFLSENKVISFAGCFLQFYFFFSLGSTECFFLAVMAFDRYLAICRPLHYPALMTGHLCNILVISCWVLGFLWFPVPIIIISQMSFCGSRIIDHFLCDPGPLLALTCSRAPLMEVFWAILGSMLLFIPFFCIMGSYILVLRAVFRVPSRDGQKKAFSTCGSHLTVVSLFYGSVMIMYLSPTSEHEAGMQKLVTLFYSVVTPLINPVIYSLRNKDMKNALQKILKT
Experimental: as §1

[13] = biological target: T3, Olfr744 (Mus musculus, UniProt Q7TRM0); test: as above; type: cell-based; conditions: Table 23
T3 construct: Flag; Rho tag; expressed in transfected cells
T3 sequence (Q7TRM0 1-323): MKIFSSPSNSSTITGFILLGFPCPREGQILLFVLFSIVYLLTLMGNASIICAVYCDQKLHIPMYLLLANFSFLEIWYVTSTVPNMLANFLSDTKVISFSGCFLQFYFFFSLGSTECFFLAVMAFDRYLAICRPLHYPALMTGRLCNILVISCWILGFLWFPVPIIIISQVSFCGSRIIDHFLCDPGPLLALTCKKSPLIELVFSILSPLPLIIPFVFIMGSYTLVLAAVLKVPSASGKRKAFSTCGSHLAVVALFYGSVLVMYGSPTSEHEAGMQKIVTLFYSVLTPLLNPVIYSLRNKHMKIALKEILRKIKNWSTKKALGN
Experimental: as §1

[14] = tested on: 1-octen-3-ol mushroom/earthy/fungal odor perception; test: Human sensory performance of test compounds with and without 1-octen-3-ol; type: in vivo; conditions: Test Compound Only
[15] = tested on: geonol receptors Olfr339, Olfr1487, Olfr1A1, OR11A1, Olfr96; test: Antagonists of geonol receptors (Example 11); type: cell-based, mouse and human; set-up: Inhibition(%): concentration or dose not given beside the values; conditions: Table 18
[16] = tested on: OR2W1 or the OR1A1 olfactory receptor; test: 1-octen-3-ol olfactory receptor antagonist cell-based dose-response vs 1-octen-3-ol EC80
From the text: Each cell line was screened with a volatile compound library for their inhibitory properties and potential 1-octen-3-ol smell inhibition.
Single concentration monitoring of the 1-octen-3-ol induced cell activity in the presence or absence of a test compound allowed for the identification of compounds with a putative suppression or inhibitory effect.

[17] = Low Dilution Test Compound + Geonol (0.1%)
[18] = Medium Dilution Test Compound + Geonol (0.1%)
[19] = Table 22, second listing of the same compounds
[20] = Table 22, first listing (r7-r45)

Row | Compound | IC50 [1] | % Earthy/Moss Odor Remaining [3, 17] [%] | % Earthy/Moss Odor Remaining [3, 18] [%] | % Earthy/Moss Odor [3] [%] | Olfr738 % Inhibition ([4]; Table 22, first listing) [%] | IC50 ([4]; Table 22, first listing) [µM] | Olfr738 % Inhibition [4, 19] [%] | Olfr740 % Inhibition ([5]; Table 22, first listing) [%] | IC50 ([6]; Table 22, first listing) [µM] | Olfr741 % Inhibition ([6]; Table 22, first listing) [%] | IC50 [6, 19] [µM] | Olfr741 % Inhibition [6, 19] [%] | IC50 [8] [µM] | Olfr748 % Inhibition [8] [%] | IC50 [9] [µM] | Olfr743 % Inhibition [9] [%] | IC50 [10] [µM] | Olfr746 % Inhibition [10] [%] | IC50 [11] [µM] | Olfr749 % Inhibition [11] [%] | other results
1 | 1-(3,3-dimethylcyclohexen-1-yl)pent-4-en-1-one; 1-(5,5-dimethylcyclohexen-1-yl)pent-4-en-1-one | 111 µM and 148 µM | 85.80 | 72.30 | 34.50 | 33.49 | 6.29 | 59.11 | 179.31 | 131 | 124.57 | 81.6 | 66.47 | 81.6 | 66.47 | 210 | 59.11 | 89.4 | 94.28 | 46.2 | 90.61 | % Remaining in human sensory tests [2]: 58* %; IC50 ([5]; Table 22, first listing): 1.68 µM; Olfr740 % Inhibition [5, 19]: 94.28%; Olfr742 % Inhibition ([7]; Table 22, first listing): 146.91%; IC50 ([7]; Table 22, first listing): 4.3 µM; Olfr742 % Inhibition [7, 19]: 90.61%
2 | C=C1CC[C@H]2O[C@]2(C)CC[C@@H]2[C@@H]1CC2(C)C |  |  |  |  | 54.69 |  | 38.36 |  | 108 | 59.56 | 121 | 9.24 | 121 | 9.24 | 192 | 38.36 | 85.9 | 13.17 | 61.3 | 91.71 | IC50 [4, 20]: 18.1 µM; Emax ([5]; Table 22, first listing): 203%; Emax [5, 19]: 13.2%; IC50 [5, 20]: 13.4 µM; Emax ([7]; Table 22, first listing): 63%; Emax [7, 19]: 91.7%; IC50 [7, 20]: 99.1 µM; Olfr739 % Inhibition ([12]; Table 22, first listing): 102.21%; IC50 [12]: 19.5 µM; Olfr739 % Inhibition [12, 19]: 55.20%; IC50 [13]: 113 µM; Olfr744 % Inhibition [13]: 55.20%
3 | 3-(4-hydroxy-4-methylpentyl)cyclohex-3-ene-1-carbaldehyde; 4-(4-hydroxy-4-methylpentyl)cyclohex-3-ene-1-carbaldehyde | 217 µM | 85.70 | 78.70 | 15.40 | 14.67 | 166 |  | 72.15 |  |  | 213 | 48.14 | 213 | 48.14 |  |  | 373 | 43.95 | 233 | 62.05 | % Inhibition [1]: 60%; IC50 ([5]; Table 22, first listing): 185 µM; Olfr740 % Inhibition [5, 19]: 43.95%; Olfr742 % Inhibition ([7]; Table 22, first listing): 41.42%; IC50 ([7]; Table 22, first listing): 182 µM; Olfr742 % Inhibition [7, 19]: 62.05%
4 | CC1(C)CCC[C@]2(C)CC(=O)CC[C@@H]12 (racemic) [(+−)-perhydro-5,5,8A-trimethyl-2-trans-naphthalenone] |  |  |  | 45.20 | 101.72 |  |  |  | 148 | 96.86 |  |  | 106 | 65.60 | 264 | 123.10 | 308 | 81.36 | 41.5 | 96.98 | % Mushroom/Earthy/Fungal Odor [14]: 30.80%; IC50 [15]: 96.7 µM; Inhibition(%) [15]: 71%; IC50 [4, 20]: 2.74 µM; Emax ([5]; Table 22, first listing): 127%; IC50 [5, 20]: 1.96 µM; Olfr739 % Inhibition ([12]; Table 22, first listing): 68.44%; IC50 [12]: 13.9 µM; IC50 [13]: 74.7 µM; Olfr744 % Inhibition [13]: 107.89%; IC50 ([16]; 1-octen-3-ol at EC80): 63.2 µM; % Inhibition ([16]; maximum inhibition normalized to baseline agonist activity): 102.97%
